Measurements from paper PMC10961089, “Epidermal growth factor receptor inhibition potentiates chemotherapeutics‐mediated sensitization of metastatic breast cancer stem cells” (Cancer Reports, 2024).

What was measured:
MDA‐MB‐468 [1] = experiment: Cell migration (chemotaxis), Boyden-Chamber assay; assay type: cell-based, human; settings: Doxorubicin 0.01 μM + compound 5 μM (PD153035 10 μM) vs 10% FBS and Doxorubicin alone
Description: (§1) TNBC cell lines—MDA‐MB‐231, MDA‐MB‐468, and the sorted CD24^+‐breast cancer cells, and CD24^−/CD44^+‐breast CSC populations from MDA‐MB‐231 [6] were seeded at a density of 1 × 10^6 cells/well to evaluate their migratory potential by Boyden‐Chamber assay. […] At the end of the treatment period, the cells were plated at a density of 5 × 10^3 cells/well in the upper chamber of the Boyden chamber assembly and 10% FBS in the lower chamber was used as a chemoattractant. Separately, the cells in the upper chamber were treated with Doxorubicin (0.01–0.1 μM) alone or with the potential EGFR inhibitors (compounds—1c, 1e, 1g, 1h, 1j, and 1k (5 μM) based on their low IC50 values) or a commercial EGFR inhibitor, PD153035 (10 μM) and incubated for 4 h followed by fixation and staining as described previously.[28], [29]

MDA‐MB‐231 [2] = experiment: Cell migration (chemotaxis), Boyden-Chamber assay; assay type: cell-based, human; settings: Doxorubicin 0.01 μM + compound 5 μM (PD153035 10 μM) vs 10% FBS and Doxorubicin alone
Description: as §1

[3] = system: human CD44, ALDH1A1, Fibronectin, N‐Cadherin, Vimentin in tumor tissue; experiment: qRT-PCR of human CSC/EMT genes in tumor tissues; assay type: in vivo, C57BL/6 mice; settings: with doxorubicin low dose vs low dose doxorubicin alone
Description: Additionally, total RNA was isolated from tumor tissues and utilized for cDNA synthesis (Thermo Scientific, Massachusetts, USA). To determine the transcriptional regulation of expression of EMT genes in tumor tissues subjected to various treatment regimes, quantitative real‐time PCR (qRT‐PCR) analysis was performed as described previously[28] using human gene‐specific forward and reverse primers of EMT genes. Amplification of Eukaryotic 18S rRNA served as an internal control and was utilized to calculate the fold change in expression.[29]
(§2) Animal studies have been carried out with the prior approval of the Institutional Animal Ethics Committee (IICT/IAEC/025/2023). C57BL/6 female mice of age 6–8 weeks (N = 35) were initially immunosuppressed with cyclophosphamide (50 mg/kg of body weight, i.p) on alternate days for 2 weeks. For generating a preclinical orthotopic xenograft tumor model, 2 × 10^6 GFP expressing sorted stable CD24^+‐breast cancer cells and CD24^−/CD44^+‐breast CSCs were orthotopically xeno‐transplanted subcutaneously at the fourth mammary fat pad of immune‐suppressed mice (n = 5/group). Subsequently, intratumoral administration of Doxorubicin at a low dose (2.5 mg/kg of body weight), high dose (10 mg/kg of body weight), and/or combinatorial treatment of the potent EGFR inhibitor, compound 1e (50 mg/kg of body weight) or the commercial EGFR inhibitor, PD153035 (50 mg/kg of body weight) with a low dose of doxorubicin was performed to the palpable tumors of breast CSCs at day‐3 post‐transplantation.

[4] = system: Bax and Cytochrome‐C in MDA‐MB‐231 cells; experiment: Gene expression of apoptotic genes, semi-quantitative RT-PCR; assay type: cell-based, human; settings: MDA-MB-231, doxorubicin + compound 5 μM, 24 h
Description: Briefly, the cells were incubated at 37°C with serum starvation followed by culturing as described above. […] Briefly, the template RNA (1 μg) was utilized for cDNA synthesis using a First‐strand cDNA synthesis kit (Thermo Scientific, USA) according to the manufacturer's protocol. Thermal cycler (Mastercycler® nexus, Eppendorf) was used for the amplification of the expression of apoptotic genes—Bax, Bcl2, Cytochrome‐C, and target gene EGFR with the help of Dream Taq DNA Polymerase PCR Master Mix (Thermo Scientific, USA) along with human gene‐specific forward and reverse primer sequences of the apoptotic genes and EGFR (Table ST1). The expression of the target genes was normalized to the Eukaryotic 18S rRNA.

[5] = system: CD24^−/CD44^+‐breast CSCs xenotransplanted tumors; experiment: Preclinical orthotopic xenograft murine tumor model (tumor size, weight, H&E histology); assay type: in vivo, C57BL/6 mice
Description: as §2
Euthanization of mice was performed on day 14 post‐transplantation and tumor tissues were collected for histological and immunohistochemical analysis. Histological differences in tumor tissues were evaluated using hematoxylin and eosin staining (H&E).[28], [30]

MDA‐MB‐468 [6] = system: MDA‐MB‐468; design: method as in PMID 28398698; settings: unit not printed in the sentence (Table 1 in μM); read-out: IC50 against MDA‐MB‐468; cited from earlier work
MDA‐MB‐231 [7] = system: MDA‐MB‐231; design: method as in PMID 28398698; settings: unit not printed in the sentence (Table 1 in μM); read-out: IC50 against MDA‐MB‐231; cited from earlier work
[8] = system: CD44, p‐EGFR, p‐JNK, p‐p38 in tumor tissue; experiment: Immunohistochemical analysis of tumor tissue (colocalization with GFP, Pearson's correlation coefficient); assay type: in vivo, C57BL/6 mice
Description: as §2
Immunohistochemical analysis was performed by immunostaining the tissue serial sections with primary antibodies against GFP, CD44, p‐EGFR, p‐JNK, and p‐p38 (CST, USA) followed by alexafluor‐488/555 conjugated secondary antibodies (R&D systems, USA) and mounting medium containing DAPI.[28], [29] Images were captured using a confocal microscope (Olympus FV10i, Tokyo, Japan). Pearson's correlation coefficient was utilized to determine the co‐localization of GFP/CD44, GFP/p‐EGFR, GFP/p‐JNK, and GFP/p‐p38 (Table. ST3).

SMILES: COc1cc2ncnc(Nc3cccc(Br)c3)c2cc1OC [PD153035, reference compound]
- migratory potential (MDA‐MB‐468 [1]): significant decrease
- migratory potential (MDA‐MB‐231 [2]): significant decrease
- expression level of human CD44 in tumor tissue [3]: significantly decreased
- expression of pro‐apoptotic genes Bax and Cytochrome‐C [4]: marked increase
- tumorigenicity (H&E histology) ([5]; 50 mg/kg + low dose doxorubicin 2.5 mg/kg, CSC xenograft): significant decrease
- histopathological finding in tumor tissue ([5]; 50 mg/kg + low dose doxorubicin 2.5 mg/kg, CSC xenograft, day 14): neoplastic mass in the dermal region which was completely necrosed and replaced with fibrous tissue
- tumor size ([5]; intratumoral, 50 mg/kg + doxorubicin low dose 2.5 mg/kg vs low dose doxorubicin alone, CD24^−/CD44^+ CSC xenograft): significantly decreased
- IC50 (MDA‐MB‐468 [6]): 15.4 µM
- IC50 (MDA‐MB‐231 [7]): 3.2 µM
- colocalization of GFP/p‐EGFR ([8]; with doxorubicin low dose, CSC xenograft tumor tissue): decreased significantly
- activation of apoptotic signaling mediators (GFP/p‐JNK, GFP/p‐p38 colocalization) ([8]; with low dose doxorubicin, comparable with high dose doxorubicin alone): increased activation
- colocalization of GFP and CD44 (Pearson's correlation coefficient) ([8]; with low dose of doxorubicin, CSC xenograft tumor tissue): comparable to the high dose of doxorubicin treated group
